target: T1, Recombinant human HSD17B13 enzyme (Homo sapiens, UniProt Q7Z5P4); experiment: HSD17b13 NAD(P)H-Glo biochemical assay; settings: 50 uM estradiol, 1 mM NAD+, NAD(P)H-Glo luminescence; read-out: HSD17β13 IC50
T1 sequence (Q7Z5P4 20-300): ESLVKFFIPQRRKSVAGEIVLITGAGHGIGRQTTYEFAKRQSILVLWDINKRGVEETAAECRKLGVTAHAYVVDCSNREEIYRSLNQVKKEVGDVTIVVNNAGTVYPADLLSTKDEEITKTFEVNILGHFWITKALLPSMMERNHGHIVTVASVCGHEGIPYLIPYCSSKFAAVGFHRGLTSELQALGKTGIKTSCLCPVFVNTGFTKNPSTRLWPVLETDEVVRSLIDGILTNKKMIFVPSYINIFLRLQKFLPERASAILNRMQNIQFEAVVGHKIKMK
Summary of the method: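 Luminescent NAD(P)H-Glo read-out, taken after 1 hour at RT, measured cofactor reduction. Substrate and cofactor were estradiol at 50 uM and NAD+ at 1 mM final, reacted with the recombinant human enzyme for 3 hours at 37° C in 20 mM Tris pH7.4, 0.002% Tween-20, 0.02% BSA. Compound was pre-incubated with enzyme for 20 minutes at RT.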

Row | IC50 [nM] | SMILES
1 | < 100 | Cn1nc(-c2cc(C(F)(F)F)c(F)c(O)c2F)c2cnc(N3CCN(S(C)(=O)=O)C4(COC4)C3)nc21 [Compound 18.112, 2,6-Difluoro-3-(1-methyl-6-(5-(methylsulfonyl)-2-oxa-5,8-diazaspiro[3.5]nonan-8-yl)-1H-pyrazolo[3,4-d]pyrimidin-3-y1)-5-(trifluoromethyl)phenol]
2 | 100 to 1000 | O=C(NC1COC1)c1ccc2oc(-c3cc(C(F)(F)F)c(F)c(O)c3F)nc2c1 [Compound 1.19, 2-(2,4-Difluoro-3-hydroxy-5-(trifluoromethyl)phenyl)-N-(oxetan-3-yl)benzo[d]oxazole-5-carboxamide]
3 | < 100 | Oc1c(F)c(-c2nn(C3COC3)c3cc(N4CCOCC45CC5)ncc23)cc(C(F)(F)F)c1F [Compound 9.55, 2,6-Difluoro-3-(1-(oxetan-3-yl)-6-(7-oxa-4-azaspiro [2.5]octan-4-yl)-1H-pyrazolo[4,3-c]pyridin-3-yl)-5-(trifluoromethyl)phenol]
4 | < 100 | C[C@H]1CN(C(=O)Nc2ccccc2)CCN1c1cc2c(cn1)c(-c1cc(C(F)(F)F)c(F)c(O)c1F)nn2C [Compound 21.02, (S)-4-(3-(2,4-Difluoro-3-hydroxy-5-(trifluoromethyl)phenyl)-1-methyl-1H-pyrazolo[4,3-c]pyridin-6-y1)-3-methyl-N-phenylpiperazine-1-carboxamide]
5 | 100 to 1000 | Cn1nc(-c2cc(C(F)(F)F)c(F)c(O)c2F)c2cnc(N3CCOC(c4ncc[nH]4)C3)nc21 (stereo not shown) [Compound 18.79, 3-(6-(2-(1H-Imidazol-2-yl)morpholino)-1-methyl-1H-pyrazolo[3,4-d]pyrimidin-3-y1)-2,6-difluoro-5-(trifluoromethyl)phenol]
6 | < 100 | Cn1nc(-c2cc(C(F)(F)F)c(F)c(O)c2F)c2cnc(N3CCCCC34CCC4)cc21 [Compound 9.59, 2,6-Difluoro-3-(1-methyl-6-(5-azaspiro[3.5]nonan-5-yl)-1H-pyrazolo[4,3-c]pyridin-3-yl)-5-(trifluoromethyl)phenol]
7 | < 100 | Cn1nc(-c2cc(C(F)(F)F)c(F)c(O)c2F)c2cnc(N3CCN(C(=O)Nc4ccccc4)CC3(C)C)cc21 [Compound 21.03, 4-(3-(2,4-Difluoro-3-hydroxy-5-(trifluoromethyl)phenyl)-1-methyl-1H-pyrazolo[4,3-c]pyridin-6-y1)-3,3-dimethyl-N-phenylpiperazine-1-carboxamide]

Second part, the compound before the results:

Row | SMILES | IC50 [nM]
8 | CN1CCN(c2ncc3c(-c4cc(C(F)(F)F)c(F)c(O)c4F)nn(C)c3n2)CC1c1ccccc1 (stereo not shown) [Compound 18.94, 2,6-Difluoro-3-(1-methyl-6-(4-methyl-3-phenylpiperazin-1-y1)-1H-pyrazolo[3,4-d]pyrimidin-3-yl)-5-(trifluoromethyl)phenol] | < 100
9 | CS(=O)(=O)N1CCN(c2ccc3nc(-c4cc(O)cc(C(F)(F)F)c4)oc3c2)CC1 [Compound 4.01, 3-(6-(4-(Methylsulfonyl)piperazin-1-yl)benzo[d]oxazol-2-yl)-5-(trifluoromethyl)phenol] | 100 to 1000
10 | CS(=O)(=O)N1CC(NC(=O)c2ccc3oc(-c4cc(C(F)(F)F)c(F)c(O)c4F)nc3c2)C1 [Compound 1.20, 2-(2,4-Difluoro-3-hydroxy-5-(trifluoromethyl)phenyl)-N-(1-(methylsulfonyl)azetidin-3-yl)benzo[d]oxazole-5-carboxamide] | 100 to 1000
11 | Cn1nc(-c2cc(C(F)(F)F)c(F)c(O)c2F)c2cnc(N3CCOC(C4CCOCC4)C3)nc21 (stereo not shown) [Compound 18.49, 2,6-Difluoro-3-(1-methyl-6-(2-(tetrahydro-2H-pyran-4-yl)morpholino)-1H-pyrazolo[3,4-d]pyrimidin-3-y1)-5-(trifluoromethyl)phenol] | < 100
12 | Cn1nc(-c2cc(C(F)(F)F)c(F)c(O)c2F)c2cnc(N3CCN(C(=O)C4CC4)CC3)nc21 [Compound 18.123, Cyclopropyl(4-(3-(2,4-difluoro-3-hydroxy-5-(trifluoromethyl)phenyl)-1-methyl-1H-pyrazolo[3,4-d]pyrimidin-6-y1)piperazin-1-yl)methanone] | < 100
13 | Cn1nc(-c2cc(C(F)(F)F)c(F)c(O)c2F)c2cnc(N3CCNCC3)nc21 [Compound 18.75, 2,6-Difluoro-3-(1-methyl-6-(piperazin-1-y1)-1H-pyrazolo[3,4-d]pyrimidin-3-y1)-5-(trifluoromethyl)phenol] | 100 to 1000
14 | Cn1nc(-c2cc(C(F)(F)F)c(F)c(O)c2F)c2cnc(N3CCOC(C4CCOCC4)C3)cc21 (stereo not shown) [Compound 9.133, 2,6-Difluoro-3-(1-methyl-6-(2-(tetrahydro-2H-pyran-4-yl)morpholino)-1H-pyrazolo[4,3-c]pyridin-3-yl)-5-(trifluoromethyl)phenol] | < 100
15 | Cn1nc(-c2cc(C(F)(F)F)c(F)c(O)c2F)c2cnc(N3CCOC(C(N)=O)C3)nc21 (stereo not shown) [Compound 18.07, 4-(3-(2,4-Difluoro-3-hydroxy-5-(trifluoromethyl)phenyl)-1-methyl-1H-pyrazolo[3,4-d]pyrimidin-6-yl)morpholine-2-carboxamide] | < 100
16 | Cn1nc(-c2cc(C(F)(F)F)c(F)c(O)c2F)c2cnc(NC3CCC3)cc21 [Compound 9.14, 3-(6-(Cyclobutylamino)-1-methyl-1H-pyrazolo[4,3-c]pyridin-3-yl)-2,6-difluoro-5-(trifluoromethyl)phenol] | < 100
17 | Cn1nc(-c2cc(C(F)(F)F)c(F)c(O)c2F)c2cnc(N3CCN(C(=O)Nc4ccccc4)CC34CCC4)cc21 [Compound 21.05, 5-(3-(2,4-Difluoro-3-hydroxy-5-(trifluoromethyl)phenyl)-1-methyl-1H-pyrazolo[4,3-c]pyridin-6-y1)-N-phenyl-5,8-diazaspiro[3.5]nonane-8-carboxamide] | < 100
18 | C[C@@H]1CN(C(=O)Nc2ccccc2)CCN1c1cc2c(cn1)c(-c1cc(C(F)(F)F)c(F)c(O)c1F)nn2C [Compound 21, (R)-4-(3-(2,4-Difluoro-3-hydroxy-5-(trifluoromethyl)phenyl)-1-methyl-1H-pyrazolo[4,3-c]pyridin-6-yl)-3-methyl-N-phenylpiperazine-1-carboxamide] | < 100
19 | CS(=O)(=O)N1CCC(c2ccc3c(-c4cc(O)c(F)c(C(F)(F)F)c4)n[nH]c3c2)CC1 [Compound 15, 2-Fluoro-5-(6-(1-(methylsulfonyl)piperidin-4-yl)-1H-indazol-3-yl)-3-(trifluoromethyl)phenol] | 100 to 1000
20 | Cn1nc(-c2cc(C(F)(F)F)c(F)c(O)c2F)c2cnc(N3CCOC4(CC4)C3)nc21 [Compound 18.105, 2,6-Difluoro-3-(1-methyl-6-(4-oxa-7-azaspiro[2.5]octan-7-y1)-1H-pyrazolo[3,4-d]pyrimidin-3-y1)-5-(trifluoromethyl)phenol] | < 100
21 | Cn1nc(-c2cc(C(F)(F)F)c(F)c(O)c2F)c2cnc(N3CCCC(c4cncnc4)C3)nc21 (stereo not shown) [Compound 18.90, 2,6-Difluoro-3-(1-methyl-6-(3-(pyrimidin-5-y1)piperidin-1-yl)-1H-pyrazolo[3,4-d]pyrimidin-3-y1)-5-(trifluoromethyl)phenol] | < 100

same assay, conditions: at 10 uM compound; read-out: HSD17β13 % inhibition at 10 uM

Row | inhibition at 10 µM [%] | SMILES
22 | < 20 | Cn1nc(-c2cccc(O)c2)c2cnc(N3CCN(S(C)(=O)=O)C4(CC4)C3)nc21 [Compound 12.10, 3-(1-Methyl-6-(4-(methylsulfonyl)-4,7-diazaspiro[2.5]octan-7-yl)-1H-pyrazolo[3,4-d]pyrimidin-3-yl)phenol]
